Here are results for 1 compound from patent US4410459A, “Process for preparation of cytostatic compounds” (priority 1980, dated 1983).

SMILES strings stand for the structures.

Data set [1] relates to HeLa culture. As to the kind of experiment: Metaphase block stages in stained tissue cultures. The data set is classed as cell-based. The method, then: The test compounds were dissolved in the tissue cultures (HeLa culture) in concentrations ranging from the threshold dose of 1×10^-3 μg./ml. up to 100 μg./ml. In 24-hour cultures, by in vivo microscopic evaluation of the metaphase-arresting affect the following results were obtained.
Under similar conditions but using stained tissue cultures slight differences could be observed which can be classified as follows:
The first stage (minimal effective dose) is characterized by an increased ratio of blocked mitoses. A part is abnormal mitoses, for example three-group mitosis or polar chromosomes also occur. Generally the anaphases have already disappeared.
In the second stage a strong metaphase blocking is observed and practically there is no regulare mitosis present. Chromosomes are in the form of a loose glomus. The proportion of interphase cells is low.
In the third stage the chromosomas are aggregated in a mass in the middle of the cell. This state is called picnomitosis of "Ball-Metaphase".
In the fourth stage already the interphase cells are influenced. More particularly, the number of the blocked cells is decreased since they are not able to take part in mitosis. The cytoplasm of the cells (in interphase) is extended, its border is irregular, "fringy", the cells frequently have an elongated, fibroplast-like shape.
Finally, in the fifth stage the cytoplasm is filled in by a fine, reticular structure and the interphase cell has unambiguously been killed by the treatment.

Data set [2] has as its system NK/Ly ascites lymphoma. As to the kind of experiment: NK/Ly ascites tumour test (survival and tumor-free animals). Particulars: 5 × 4.0 mg./kg. i.p. The data set is classed as in vivo, Swiss-H/Riop outbred mice. The method, then:
(§1) The effect of the new compounds on intraperitoneally transplantable tumors (P 388 mouse leukaemia and NK/Ly ascites lymphoma) is described hereinbelow. The P 388 leukaemia test was performed on BDF hybrid mice. The tests were carried out on groups of six mice and 10^6 tumor cells/animal were transplanted intraperitoneally. Administration of the test compounds was started in the 24th hour after transplantation. Treatment was performed intraperitoneally and the body weight and state of animals was controlled every day. The effect obtained on the treated animals is expressed in % of the mean length of life of the control group, given in days.
Into groups of ten Swiss-H/Riop outbred mice from our own breed 5×10^6 ascites tumour cells were transplanted intraperitoneally. In the 24th hour after transplantation treatment was started and the compounds were administered daily, altogether five times. The mean length of life of the control group amounted to 15.7 days.

Data set [3] has as its system P 388 mouse leukaemia. The experiment in a line: P 388 leukaemia test (life span of i.p. transplanted mice). Format: in vivo, BDF hybrid mice. The method, then: as §1
Data set [4] is described as follows: Acute toxicity in mice (i.p., Lichfield and Wilcoxon), with paralytic side effect. Format: in vivo, male Swiss mice. The method, then:
The acute toxicity of the compounds according to the invention was tested on male Swiss mice weighing 27 to 31 g. The tests were carried out on groups of six mice. Test compounds were administered intraperitoneally, as injectable solutions prepared with physiological saline solution and optionally one drop of Tween 80.

`CCC1(O)CC2CN(CCc3c([nH]c4ccccc34)C(C(=O)OC)(c3cc4c(cc3OC)N(COCC(C)C)C3C(O)(C(=O)OC)C(OC(C)=O)C5(CC)C=CCN6CCC43C65)C2)C1` (stereo not shown) [N-Desmethyl-N-(isobutoxymethyl)-vinblastine]: in data set [1], the relative effectiveness result is given as “an order of a magnitude lower effect”. In addition, the “effect on mitosis at lowest dose” value in data set [1] (0.001 μg./ml.) is “regular mitoses could still be observed”. Also, the alive in data set [2] is 10/10. Also, the “on the 25th day tumor-free” value in data set [2] was 10/10. Moreover, in data set [2], the “on the 30th day tumor-free” value is on record as 7/10. Besides, the “Mean length of life, treated” value was 13.7 days in data set [3] (8 × 0.4 mg./kg. i.p.), 20.0 days in data set [3] (8 × 4.0 mg./kg. i.p.) and 20.5 days in data set [3] (8 × 8.0 mg./kg. i.p.). Besides, the response vs control in vivo at 0.4 mg/kg in data set [3] (Mus musculus, P388, ip, mean length of life, 8 × 0.4 mg./kg. i.p., read-out: Treated/Control) is 133%. Besides, in data set [3] (Mus musculus, P388, ip, mean length of life, 8 × 4.0 mg./kg. i.p., read-out: Treated/Control), the response vs control in vivo at 4 mg/kg worked out at 194%. The response vs control in vivo at 8 mg/kg in data set [3] (Mus musculus, P388, ip, mean length of life, 8 × 8.0 mg./kg. i.p., read-out: Treated/Control) was determined as 208%. In data set [4] (mouse, in vivo, ip), this compound yielded a median lethal dose (LD50) of about 60 mg/kg. Further, in data set [4] (symbols 0 / + not defined), the Paralytic side effect worked out at 0.
